Reference: PMC9272937, “Anti-breast cancer sinomenine derivatives via mechanisms of apoptosis induction and metastasis reduction” (Journal of Enzyme Inhibition and Medicinal Chemistry, 2022)

Legend:
[1] = test system: human lung cancer cell line A549; assay: CCK-8 antiproliferative assay, A549; format: cell-based; conditions: Homo sapiens, A549; CCK-8, 48 h, mean ± SD of three experiments
Experimental: (§1) The antiproliferative activities of target compounds were examined by CCK-8 assay in three cancer cells (human lung cancer cell line A549, human mammary gland tumour cell line MCF-7 and human TNBC cell line MDA-MB-231) and one normal cell (human normal breast cell line MCF10A). All cell lines were sourced from KeyGEN Biotech, […], China, and a standard DMEM medium was applied to all cell cultures then subjected to 24 h incubation at 37 °C in a humidified environment with 5% CO2. After that logarithmic growing cells were plated on 96-well plates with 8,000 cells per well in a […] medium for 24 h incubation at 37 °C with 5% CO2. The DMEM medium with bovine serum was removed from each well. Then, prerequisite target compounds and positive controls were added to different cell lines in a predetermined concentration regiment for 48 h culture.

[2] = test system: human mammary gland tumour cell line MCF-7; assay: CCK-8 antiproliferative assay, MCF-7; format: cell-based; conditions: for IC50: Homo sapiens, MCF7, 48 h, read-out: IC50 MCF-7; for SI MCF-7 (selectivity index): SI = IC50(MCF-10A)/IC50(MCF-7)
Experimental: as §1

[3] = test system: human TNBC cell line MDA-MB-231; assay: CCK-8 antiproliferative assay, MDA-MB-231; format: cell-based; conditions: for IC50: Homo sapiens, MDA-MB-231, 48 h, read-out: IC50 MDA-MB-231; for SI MDA-MB-231 (selectivity index): SI = IC50(MCF-10A)/IC50(MDA-MB-231)
Experimental: as §1

[4] = test system: human normal breast cell line MCF10A; assay: CCK-8 assay, normal cells MCF10A; format: cell-based; conditions: MCF-10A, CCK-8, 48 h, mean ± SD of three experiments
Experimental: as §1

[5] = Griess assay, NO-releasing capacity; conditions: 10^−4 mol/l compound, L-cysteine, 37 °C, 15-180 min
Experimental: The NO-releasing capacity of each target compound was determined by the colorimetric method under the instructions of the manufacturer. Preparation of standard curves of 0, 1.56, 3.13, 6.25, 12.5, 25, 50 and 100 μmol/L nitrite nitrogen series standard solution was prepared. 50 μL to 96-well plate was added respectively and then mixed with 50 μL Griess I and Griess II; the absorption value was measured at 540 nm wavelength. A standard curve was drawn from the obtained data. Compounds were formulated into 10^−4 mol/l with PBS (pH = 7.4) and pharmaceutical DMSO. The newly formulated L-cysteine solution 100 μL ([…]) was added and incubated at 37 °C for 15, 30, 45, 60, 90, 120, 150 and180 min, respectively. Griess I and II recovered to room temperature, 50 μL of compounds 7A–E(a–c) were added respectively into the 96-well plate, and then 50 μL of Griess I and 50 μL of Griess II were added in sequence, with the absorbance tested at 540 nm. The amount of NO released was then calculated according to the standard curve.

COC1=CC2[C@H]3Cc4ccc(OC)c(OC(=O)CCC(=O)OCCCCCOc5no[n+]([O-])c5S(=O)(=O)c5ccccc5)c4[C@@]2(CCN3C)CC1=O (stereo partly drawn) [7Da, 4-((5-((4-(((4bs,9R)-3,7-Dimethoxy-11-methyl-6-oxo-6,8a,9,10-tetrahydro-5H-9,4b-(epiminoethano)phenanthren-4-yl)oxy)-4-oxobutanoyl)oxy)pentyl)oxy)-3-(phenylsulfonyl)-1,2,5-oxadiazole 2-oxide]
IC50 [1]: 2790 ± 70 nM | IC50 [2]: 1800 ± 110 nM | SI MCF-7 (selectivity index) [2]: 13.74 | IC50 [3]: 920 ± 10 nM | SI MDA-MB-231 (selectivity index) [3]: 26.89 | IC50 [4]: 24700 ± 1670 nM | NO peak releasing [5]: exceeding 40 μmol/L

COC1=CC2[C@H]3Cc4ccc(OC)c(OC(=O)c5ccccc5C(=O)OCCCCCOc5no[n+]([O-])c5S(=O)(=O)c5ccccc5)c4[C@@]2(CCN3C)CC1=O (stereo partly drawn) [7Dc, 4-((5-((2-((((4bs,9R)-3,7-Dimethoxy-11-methyl-6-oxo-6,8a,9,10-tetrahydro-5H-9,4b-(epiminoethano)phenanthren-4-yl)oxy)carbonyl)benzoyl)oxy)pentyl)oxy)-3-(phenylsulfonyl)-1,2,5-oxadiazole 2-oxide]
IC50 [1]: 1630 ± 50 nM | IC50 [2]: 2180 ± 100 nM | SI MCF-7 (selectivity index) [2]: 9.11 | IC50 [3]: 1880 ± 90 nM | SI MDA-MB-231 (selectivity index) [3]: 10.56 | IC50 [4]: 19800 ± 1430 nM | NO peak releasing [5]: exceeding 40 μmol/L
